SMILES strings stand for the structures.

Take `N#Cc1c(N)nc(SCc2csc(Nc3cccc(Cl)c3)n2)c(C#N)c1-c1ccc(OCC(O)CO)cc1` (stereo not shown) [Example 1, 2-Amino-6-[({2-[(3-chlorophenyl)amino]-1,3-thiazol-4-yl}methyl)thio]-4-[4-(2,3-dihydroxypropoxy)phenyl]pyridine-3,5-dicarbonitrile]: the melting point was in the range of 192 to 194 °C.
